From patent publication US10343992B2, “1-cyano-pyrrolidine compounds as USP30 inhibitors” (MISSION THERAPEUTICS LIMITED, priority 2015, dated 2019)

These molecules were tested against USP30 (Homo sapiens (Human), UniProt Q70CQ3) (assay: USP30 biochemical FP or FI IC50 assay). Conditions: read-out: IC50 range.
Summary of the method: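 Human USP30 preincubated 30 min at room temperature with compound (8-point series, 100 µM top final) in Tris pH 7.5, Tween 20, BSA, 5 mM β-mercaptoethanol, in duplicate. FP format: 50 nM TAMRA-peptide–isopeptide-ubiquitin substrate, ex 540/em 590. FI format: 100 nM ubiquitin-rhodamine 110, ex 487/em 535. Both read at 0 and after 2 h at room temperature.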

USP30, sequence (Q70CQ3 57-517): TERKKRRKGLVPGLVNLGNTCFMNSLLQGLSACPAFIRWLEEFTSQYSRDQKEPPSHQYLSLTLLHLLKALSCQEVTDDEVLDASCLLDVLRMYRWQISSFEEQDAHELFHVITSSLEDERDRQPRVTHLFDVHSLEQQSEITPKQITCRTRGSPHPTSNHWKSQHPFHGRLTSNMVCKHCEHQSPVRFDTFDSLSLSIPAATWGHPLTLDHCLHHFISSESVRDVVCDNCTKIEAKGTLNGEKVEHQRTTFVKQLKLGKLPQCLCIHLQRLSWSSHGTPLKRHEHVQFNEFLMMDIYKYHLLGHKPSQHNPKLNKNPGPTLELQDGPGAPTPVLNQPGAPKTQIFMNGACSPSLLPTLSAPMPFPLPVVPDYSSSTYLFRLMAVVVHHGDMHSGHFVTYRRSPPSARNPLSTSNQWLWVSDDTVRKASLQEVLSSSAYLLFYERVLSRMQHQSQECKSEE

Structure (SMILES) | IC50
N#CN1CC[C@@H](NC(=O)c2ccc(-c3cnc4cnccn34)cc2F)C1 [Example 185, (R)-N-(1-cyanopyrrolidin-3-yl)-2-fluoro-4-(imidazo[1,2-a]pyrazin-3-yl)benzamide] | < 100 nM
N#CN1CC[C@@H](NC(=O)c2ccc(N3CCCC3)cc2F)C1 [Example 143, (R)-N-(1-cyanopyrrolidin-3-yl)-2-fluoro-4-(pyrrolidin-1-yl)benzamide] | < 100 nM
N#CN1CC[C@@H](NC(=O)c2cc(-c3ccccc3)cnn2)C1 [Example 67, (R)—N-(1-cyanopyrrolidin-3-yl)-5-phenylpyridazine-3-carboxamide] | 100 to 1000 nM
N#CN1CC[C@@H](NC(=O)c2cnc3cc(N4CCOCC4)ccn23)C1 [Example 166, (R)-N-(1-cyanopyrrolidin-3-yl)-7-morpholinoimidazo[1,2-a]pyridine-3-carboxamide] | 100 to 1000 nM
N#CN1CC[C@@H](NC(=O)N2CCc3c([nH]c4ccccc34)C2)C1 [Example 139, (R)-N-(1-cyanopyrrolidin-3-yl)-1,3,4,9-tetrahydro-2H-pyrido[3,4-b]indole-2-carboxamide] | 100 to 1000 nM
N#CN1CCC(NC(=O)c2ccc(Oc3ccccc3)cc2)C1 (racemic) [Example 15, N-(1-cyanopyrrolidin-3-yl)-4-phenoxybenzamide] | 1000 to 10000 nM
COCCn1cc(-c2ccc(C(=O)N[C@@H]3CCN(C#N)C3)c(F)c2)cn1 [Example 82, (R)-N-(1-cyanopyrrolidin-3-yl)-2-fluoro-4-(1-(2-methoxyethyl)-1H-pyrazol-4-yl)benzamide] | 100 to 1000 nM
N#CN1CCC(NC(=O)Nc2ccc(C(F)(F)F)cc2)C1 (stereo not drawn) [Example 252, 1-(1-cyanopyrrolidin-3-yl)-3-(4-(trifluoromethyl)phenyl)urea] | 100 to 1000 nM
N#CN1C[C@H]2CCN(C(=O)Nc3ccc(Cl)cc3F)[C@H]2C1 [Example 196, (3aR,6aR)-N-(4-chloro-2-fluorophenyl)-5-cyanohexahydropyrrolo[3,4-b]pyrrole-1(2H)-carboxamide] | 100 to 1000 nM
Cc1cc(-c2ccn3c(C(=O)N(C)[C@@H]4CCN(C#N)C4)cnc3c2)cc(C)n1 [Example 164, (R)-N-(1-cyanopyrrolidin-3-yl)-7-(2,6-dimethylpyridin-4-yl)-N-methylimidazo[1,2-a]pyridine-3-carboxamide] | 100 to 1000 nM
N#CN1CC[C@@H](NC(=O)c2cc(-c3ccccc3)no2)C1 [Example 33, (R)-N-(1-cyanopyrrolidin-3-yl)-3-phenylisoxazole-5-carboxamide] | 100 to 1000 nM
N#CN1CC[C@@H](NC(=O)N2CC(c3ccccc3)C2)C1 [Example 5, (R)—N-(1-cyanopyrrolidin-3-yl)-3-phenylazetidine-1-carboxamide] | 100 to 1000 nM
N#CN1CC[C@@H](NC(=O)c2ccc(-c3ccccc3)cn2)C1 [Example 1, (R)—N-(1-cyanopyrrolidin-3-yl)-5-phenylpicolinamide] | 100 to 1000 nM
CN(C(=O)c1ccc(-c2ccncc2Cl)cc1)[C@@H]1CCN(C#N)C1 [Example 49, (R)-4-(3-chloropyridin-4-yl)-N-(1-cyanopyrrolidin-3-yl)-N-methylbenzamide] | 100 to 1000 nM
N#CN1CCC(NC(=O)c2cn(-c3ccccc3)cn2)C1 (racemic) [Example 9, N-(1-cyanopyrrolidin-3-yl)-1-phenyl-1H-imidazole-4-carboxamide] | 100 to 1000 nM
N#CN1CC[C@@H](NC(=O)N2CCOC(c3ccccc3)C2)C1 (stereo partly drawn) [Example 136, N-((R)-1-cyanopyrrolidin-3-yl)-2-phenylmorpholine-4-carboxamide] | 100 to 1000 nM
C[C@H]1CN(C#N)C[C@@H]1NC(=O)c1cnc(-c2ccccc2)s1 [Example 71, N-((3R,4S)-1-cyano-4-methylpyrrolidin-3-yl)-2-phenylthiazole-5-carboxamide] | 100 to 1000 nM
N#CN1CC[C@@H](NC(=O)N2CCN(c3ccccc3)CC2)C1 [Example 135, (R)-N-(1-cyanopyrrolidin-3-yl)-4-phenylpiperazine-1-carboxamide] | 100 to 1000 nM
